Laboratory results published in PMC3953502 (ACS chemical biology, 2013).
Each block holds one molecule with its values, some of them ahead of it.

What was measured:
ML-IAP = target: T1, ML-IAP (Homo sapiens, UniProt Q96CA5); assay: Fluorescence polarization competition assay, ML-IAP BIR; format: binding
T1 sequence (Q96CA5 63-179 limits assumed): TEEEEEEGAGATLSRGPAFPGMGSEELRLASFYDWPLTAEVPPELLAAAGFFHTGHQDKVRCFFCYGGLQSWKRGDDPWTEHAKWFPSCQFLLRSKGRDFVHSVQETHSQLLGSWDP

Ovarian Cancer Cells = details: 50 ng/mL TRAIL; cited from earlier work
[1] = system: MDA-MB-231 breast adenocarcinoma cells; assay: MDA-MB-231 cell viability, sensitization to TRAIL; format: cell-based; details: MDA-MB-231 cells, TRAIL alone at maximum dose of 100 ng/mL

Ki (ML-IAP): 41 nM
Molecule: CN[C@@H](C)C(=O)N[C@H](C(=O)N1CCC[C@H]1C(=O)Nc1snnc1-c1ccccc1)C1CCCCC1 [GDC-0152]

Molecule: CN[C@@H](C)C(=O)N[C@H](C(=O)N1CC[C@H]2CCN(CCc3ccccc3)C[C@H]21)C1CCCCC1 [LBW242]
increase in LBW242-induced cell death with addition of TRAIL (Ovarian Cancer Cells): 2- to 3 fold

B1: TRAIL: Tumor necrosis factor-related apoptosis-inducing ligand, member of the TNF family of cytokines (protein, UniProt P50591 1-281, looked up)
Tumor necrosis factor ligand …: MAMMEVQGGPSLGQTCVLIVIFTVLLQSLCVAVTYVYFTNELKQMQDKYSKSGIACFLKEDDSYWDPNDEESMNSPCWQVKWQLRQLVRKMILRTSEETISTVQEKQQNISPLVRERGPQRVAAHITGTRGRSNTLSSPNSKNEKALGRKINSWESSRSGHSFLSNLHLRNGELVIHEKGFYYIYSQTYFRFQEEIKENTKNDKQMVQYIYKYTSYPDPILLMKSARNSCWSKDAEYGLYSIYQGGIFELKENDRIFVSVTNEHLIDMDHEASFFGAFLVG
cells undergone cell death [1]: 30%
